# Assay results reported in patent publication US6632429B1, “Methods for treating pervasive development disorders” (priority 1999, dated 2003).
# No end group written: not given here.
# What was measured:
# [1] = test system: children diagnosed as having autism; assay: Experiment 1: Fecal Chymotrypsin Test after secretin infusion; format: in vivo, human (children); conditions: each of 16 autistic children; approximately one week after first secretin infusion, 1 U/kg IV
# Experimental: (§1) In this experiment, 16 children diagnosed as having autism were administered the following Fecal Chymotrypsin Test in accordance with an embodiment of the invention. First, approximately 2 grams of stool were collected from each child and placed in a sterile container (although it is to be understood that any quantity of stool may be collected, as 2 grams of stool is not a required amount). Each stool sample was then analyzed using, e.g., an enzymatic photospectrometry analysis as is known by those skilled in the art, to determine the level of fecal chymotrypsin in the stool. Although the enzymatic photospectrophotometry process is preferred, any suitable conventional method may be used for measuring the fecal chymotrypsin levels. The measured chymotrypsin levels of the 16 autistic children are illustrated in FIG. 13.
# After determining the chymotrypsin levels of the stools, each of these levels were compared with threshold chymotrypsin levels to determine if the child was likely to benefit from secretin administration. […]
# The results of Experiment 1 are illustrated in FIGS. 1-14. For instance, approximately one week after the first secretin infusion, the fecal chymotrypsin level of each of the 16 autistic children was measured again. […]
# [2] = test system: children diagnosed as having autism; assay: Experiment 1: CARS (Childhood Autism Rating Scale) test pre/post secretin; format: in vivo, human (children); conditions: 16 autistic children
# Experimental: Upon determining that a given child was likely to benefit from secretin administration based on the results of the fecal chymotrypsin test, the child was administered a CARS (Childhood Autism Rating Scale) test prior to being scheduled for secretin infusion.
# For each of the 16 autistic children tested, a preferred secretin infusion process according to the present invention was performed involving the administering of 1 U/kg of body weight of Secretin-Ferring for a period of nine months at intervals of approximately 6 weeks. In addition, another CARS test was administered to each of the 16 autistic children 3 weeks post secretin administration to determine if their autism had changed post infusion.
# A preferred secretin infusion process includes the initial step of prepping an arm of the candidate child with an IV injection of saline. A test dose of 1 U of Secretin-Ferring is then administered to the child. Approximately one minute after infusion, the child is examined for signs of allergic reaction including rash, increased heart rate, and increase of blood pressure. […] Subsequently, each child receives a 1U/kg of body weight infusion of Secretin-Ferring approximately every 6 weeks for 9 months. It is to be understood that any commercially available form of secretin may be used. […]
# [3] = test system: autistic children with abnormal fecal chymotrypsin levels; assay: Experiment 2: fecal chymotrypsin levels during 6 months of secretin administration; format: in vivo, human (children); conditions: of 37 children, 6 months post-secretin administration
# Experimental: as §1
# After determining the chymotrypsin levels of the stools, each of these levels were compared with threshold chymotrypsin levels to determine if the child was likely to benefit from secretin administration. By way of example, with the fecal chymotrypsin tests of the stool samples being performed at 30° C. normal levels of chymotrypsin are deemed to lie above 8.4 U/gram, whereas pathologically abnormal levels are deemed to lie below 4.2 U/gram. In addition, chymotrypsin levels between 8.4 U/gram and 4.2 U/gram are considered equivocal, and further testing of the individual's fecal chymotrypsin levels over a period of time should be performed.
# A preferred secretin infusion process includes the initial step of prepping an arm of the candidate child with an IV injection of saline. A test dose of 1 U of Secretin-Ferring is then administered to the child. […]
# In this experiment, 37 autistic children with abnormal fecal chymotrypsin levels were administered secretin over the course of 6 months using the secretin infusion process described above. Their fecal chymotrypsin (FC) levels were measured weekly using the fecal chymotrypsin test described above.
# [4] = test system: children diagnosed with Autism; conditions: secretin given as diagnostic procedure during upper gastrointestinal endoscopy (Horvath et al. 1998); cited from earlier work
substance,measurement,setting,value
"secretin (HSDGTFTSELSRLRDSARLQRLLQGLV; ends and bridges not checked; UniProt P63298 33-59, looked up) [gastrointestinal peptide hormone]",fecal chymotrypsin level post-secretin administration compared with pre-secretin,[1],increased
same,CARS component scores (all except fear),[2]; 3 weeks post infusion,improvement
same,"CARS scores, overall change",[2]; approximately 3 weeks after first secretin administration vs pre-secretin,overall decrease
same,# Autistic Children w/Equivocal FC levels,[3]; pre-secretin 0,2
same,# Autistic Children w/normal FC levels,[3]; pre-secretin 0,34
same,# Autistic Children w/Abnormal FC levels,[3]; pre-secretin 37,1
same,symptoms associated with Autism after secretin administration,[4],ameliorating the symptoms
